Test results as given in PubChem BioAssay (NCI).
“And” between values parts separate entries of the source, which are not always exact repeats. Equal values may be shown once.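 All cell lines were grown in 96-well plates and treated with compound for 48 hours. At the GI50, growth is halved. Definition used: TGI = concentration required for complete inhibition of growth.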

Assays:
Test in all cases: NCI tumour cell line growth inhibition, 48 h
[1] = tested on: CAKI-1 renal
[2] = tested on: K-562 leukemia
[3] = tested on: MALME-3M melanoma
[4] = tested on: MCF7 breast
[5] = tested on: MDA-MB-231 breast
[6] = tested on: NCI-H460 lung
[7] = tested on: PC-3 prostate
[8] = tested on: SNB-19 CNS
[9] = tested on: TK-10 renal

SMILES | GI50 [1] | TGI [1] | GI50 [2] | TGI [2] | GI50 [3] | TGI [3] | GI50 [4] | TGI [4] | GI50 [5] | TGI [5] | GI50 [6] | TGI [6] | GI50 [7] | TGI [7] | GI50 [8] | TGI [8] | GI50 [9] | TGI [9]
O=C1c2ccccc2-c2c1c1ccccc1c(=O)n2CCCCNCCCn1c2c(c3ccccc3c1=O)C(=O)c1ccccc1-2 | 0.71 µM | 4.21 µM | 0.205 µM | 9.62 µM | 1.41 µM | 6.03 µM | 0.345 µM | 6.25 µM | 0.319 µM | 1.34 µM | 0.0484 µM | 0.687 µM | 0.245 µM | 1.05 µM | 0.51 µM | 10.4 µM | 0.887 µM | 4.32 µM
COc1ccc2[nH]c(=O)c3c4ccccc4cn3c2c1 | 0.169 µM | 0.839 µM | 0.276 µM | 1.33 µM | 0.911 µM | 2.48 µM | 0.153 µM | 0.969 µM | 1.24 µM | 5.85 µM | 0.19 µM | 1.31 µM | 0.429 µM | 4.08 µM | 0.95 µM | 9.33 µM | 1.28 µM | 5.02 µM
Cc1cccc(NC(=O)CCc2ccc(N3C(N)=NC(N)=NC3(C)C)cc2)c1 | 97.3 µM | > 100 µM | 0.715 µM | > 100 µM | > 46.9 µM | > 100 µM | 1.24 µM | > 100 µM | > 65.2 µM | > 100 µM | 0.454 µM | > 100 µM | 0.089 µM | > 66.4 µM | 8.35 µM | > 100 µM | 18.2 µM | > 100 µM
Cc1c(N2CCCC2)cc2c(c1NC(=O)c1ccccc1Cl)C(C)(C)CC2(C)C | – | 26.1 µM | – | > 100 µM | – | 36.1 µM | – | 28.4 µM | – | 29.3 µM | – | 26 µM | – | 29.9 µM | – | 29.5 µM | – | 23.1 µM
CCN1CCN(Cc2ccc(-c3cc4c(N[C@H](C)c5ccccc5)ncnc4[nH]3)cc2)CC1 | 0.252 µM and 1.27 µM | 3.17 µM and > 10 µM | 0.49 µM and 0.626 µM | 12.4 µM and > 10 µM | 1.92 µM and 1.78 µM | 4.14 µM and 4.02 µM | 2.78 µM and 2.68 µM | 15.9 µM and > 10 µM | 2.08 µM and 2.88 µM | 8.3 µM and > 10 µM | 5.55 µM and 6.86 µM | 23.3 µM and > 10 µM | 2.24 µM and 5.07 µM | 18.7 µM and > 10 µM | 6.11 µM and 4.04 µM | 29.7 µM and > 10 µM | 0.111 µM and 0.183 µM | 4.43 µM and > 10 µM
F | 3220 µM | > 6870 µM | 3630 µM | > 6870 µM | 1920 µM | 5060 µM | 4020 µM | > 6870 µM | 2660 µM | > 6870 µM | 5410 µM | > 6870 µM | 3920 µM | > 6870 µM | 6220 µM | > 6870 µM | 3400 µM | > 6870 µM
O=[N+]([O-])c1ccc(S(=O)(=O)Cc2ccccc2)c([N+](=O)[O-])c1 | – | 3.2 µM | – | > 100 µM | – | 6.2 µM | – | 3.65 µM | – | 5.99 µM | – | 9.43 µM | – | 3.45 µM | – | 39.6 µM | – | 3.28 µM
COc1cc(NS(C)(=O)=O)ccc1Nc1c2ccc([N+](=O)[O-])cc2nc2c(C)cccc12 | 1.13 µM | 6.94 µM | 0.801 µM | 9.89 µM | 0.717 µM | 7.07 µM | 0.0133 µM | 12.2 µM | 3.82 µM | 16.4 µM | – | 1.59 µM | 1.1 µM | 9.1 µM | 0.213 µM | 14.1 µM | 2.07 µM | 9.35 µM
CC[C@]1(O)CC(OC2CC(N(C)C)C(O)C(C)O2)c2c(cc3c(c2O)C(=O)c2c(O)cccc2C3=O)[C@@H]1C(=O)OC (stereo partly drawn) | – | 0.377 µM | – | 0.982 µM | – | 1.01 µM | – | 6.17 µM | – | 4.2 µM | – | 3.46 µM | – | 1.8 µM | – | 7.03 µM | – | 5.07 µM
C[C@@H]1COCCN1c1cc(C2([S@](C)(=N)=O)CC2)nc(-c2ccnc3[nH]ccc23)n1 | 6.06 µM and 4.17 µM | 75.9 µM and > 10 µM | 3.76 µM and 2.96 µM | > 100 µM | 8.22 µM and 6.49 µM | 45.1 µM and > 10 µM | 0.417 µM and 0.611 µM | 39 µM and > 10 µM | 7.28 µM and 7.53 µM | > 100 µM | 1.04 µM and 2.1 µM | > 100 µM | 12.2 µM and > 10 µM | > 100 µM | 3.96 µM and 6.33 µM | > 100 µM | 3.69 µM and 1.68 µM | > 59.7 µM
O=C[C@@H](CO)O[C@H](C=O)c1c[nH]c(=O)[nH]c1=O | – | 250 µM | – | 818 µM | – | 253 µM | – | 428 µM | – | 389 µM | – | 508 µM | – | 790 µM | – | 813 µM | – | 355 µM
Clc1ccc(CSC(Cn2ccnc2)c2ccc(Cl)cc2Cl)cc1 (stereo not drawn) | 1.55 µM | 4.05 µM | 2 µM | 4.81 µM | 1.64 µM | 3.15 µM | 1.6 µM | 2.99 µM | 1.51 µM | 2.98 µM | 1.47 µM | 2.78 µM | 1.21 µM | 3.61 µM | 1.52 µM | 2.89 µM | 1.53 µM | 2.89 µM
CN(C)CCOc1ccc(-c2nc(-c3ccc4c(c3)CC/C4=N\O)c(-c3ccncc3)[nH]2)cc1 | 5.18 µM and 16.9 µM | 19.5 µM and 44.8 µM | 4.74 µM and 1.95 µM | 10.5 µM and 4.2 µM | 0.00596 µM and 0.0186 µM | – | 4.52 µM and 3.55 µM | 9.03 µM and 16.1 µM | 3.27 µM and 1.63 µM | 7.26 µM and 4.88 µM | 4.14 µM and 4.55 µM | 8.24 µM and 17.2 µM | 4.09 µM and 5.66 µM | 8.12 µM and 13.7 µM | 5.29 µM and 5.01 µM | 10.8 µM and 9.56 µM | 5.66 µM and 5.27 µM | 10.1 µM and 10.4 µM
Cc1cc2nc(C(C)C(=O)c3ccc(Cl)cc3)c(=O)[nH]c2cc1C (stereo not drawn) | – | > 100 µM | – | > 100 µM | – | > 100 µM | – | > 100 µM | – | > 100 µM | – | > 100 µM | – | > 100 µM | – | > 100 µM | – | 75.2 µM
CC[C@]12CCCN3CCc4c(n(c5ccccc45)C(=O)C1)[C@@H]32 | – | > 100 µM | – | > 100 µM | – | > 67.9 µM | – | > 100 µM | – | > 86.3 µM | – | > 100 µM | – | > 100 µM | – | > 100 µM | – | > 90 µM
CCOC(=O)c1ccc2[nH]c(-c3ccc(S(=O)(=O)F)cc3)cc(=O)c2c1 | – | > 100 µM | – | > 100 µM | – | 90.6 µM | – | > 100 µM | – | > 100 µM | – | > 100 µM | – | > 100 µM | – | > 100 µM | – | > 100 µM
